According to PubChem BioAssay AID248 (DTP/NCI, 2004):
Inconclusive results and toxic doses are left out. No stated cut-off is given here; in the data, active means T/C of 150% or more; inactive means T/C below 125%.

Test system: L1210 leukemia ip in BDF1 mice, survival T/C
Test: NCI In Vivo Anticancer Drug Screen. Data for tumor model L1210 Leukemia (intraperitoneal) in B6D2F1 (BDF1) mice
Settings: endpoint: mean survival time, higher = longer survival
Outline: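 In this screen, tumor-bearing mice given compound are compared to those given vehicle, and their survival values are reported as a treated-to-control quotient.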

[1] = dose: 50.0 mg/kg/injection, schedule: Q01DX009 (ip), vehicle: saline with Tween-80
[2] = dose: 100.0 mg/kg/injection, schedule: Q04DX003 (ip), vehicle: saline with Tween-80
[3] = dose: 200.0 mg/kg/injection, schedule: Q04DX003 (ip), vehicle: saline with Tween-80
[4] = dose: 100.0 mg/kg/injection, schedule: Q04DX003 (ip), vehicle: Klucel (hydroxypropylcellulose) (HPC)
[5] = dose: 200.0 mg/kg/injection, schedule: Q04DX003 (ip), vehicle: Klucel (hydroxypropylcellulose) (HPC)
[6] = dose: 100.0 mg/kg/injection, schedule: Q01DX009 (ip), vehicle: saline with Tween-80

Measured: T/C

Cc1ccc2nc3c(nc2c1)-c1cccc2cccc-3c12
inactive: dose: 25.0 mg/kg/injection, schedule: Q01DX009 (ip), vehicle: saline with Tween-80 94 % of control | [1] 90 % of control | [2] 102 % of control | [3] 93 % of control

O=c1[nH]c(C(F)(F)F)c(Cc2ccccc2)c(=O)[nH]1
inactive: dose: 100.0 mg/kg/injection, schedule: Q01DX001 (ip), vehicle: gum acacia 95 % of control | dose: 200.0 mg/kg/injection, schedule: Q01DX001 (ip), vehicle: gum acacia 107 % of control

CCOC(=O)C(NC(=O)CCl)C(=O)OCC
inactive: dose: 50.0 mg/kg/injection, schedule: Q01DX009 (ip), vehicle: Klucel (hydroxypropylcellulose) (HPC) 91 % of control | dose: 100.0 mg/kg/injection, schedule: Q01DX009 (ip), vehicle: Klucel (hydroxypropylcellulose) (HPC) 94 % of control | [4] 100 % of control | dose: 200.0 mg/kg/injection, schedule: Q01DX009 (ip), vehicle: Klucel (hydroxypropylcellulose) (HPC) 91 % of control | [5] 91 % of control

CC1(C)CN1C1=C(NC(=O)CCl)C(=O)c2ccccc2C1=O
inactive: [4] 87 % of control | [5] 94 % of control | dose: 400.0 mg/kg/injection, schedule: Q04DX003 (ip), vehicle: Klucel (hydroxypropylcellulose) (HPC) 91 % of control

CCCCCSC(=O)C(N)=O
inactive: [6] 102 % of control | [2] 100 % of control | dose: 200.0 mg/kg/injection, schedule: Q01DX009 (ip), vehicle: saline with Tween-80 100 % of control | [3] 109 % of control | dose: 400.0 mg/kg/injection, schedule: Q01DX009 (ip), vehicle: saline with Tween-80 96 % of control | dose: 400.0 mg/kg/injection, schedule: Q04DX003 (ip), vehicle: saline with Tween-80 92 % of control

Cc1ccc(SC(=O)CCl)cc1
inactive: dose: 66.0 mg/kg/injection, schedule: Q01DX009 (ip), vehicle: gum acacia 93 % of control | dose: 100.0 mg/kg/injection, schedule: Q01DX009 (ip), vehicle: gum acacia 90 % of control | dose: 100.0 mg/kg/injection, schedule: Q04DX003 (ip), vehicle: gum acacia 102 % of control | dose: 150.0 mg/kg/injection, schedule: Q01DX009 (ip), vehicle: gum acacia 90 % of control | dose: 200.0 mg/kg/injection, schedule: Q01DX009 (ip), vehicle: gum acacia 97 % of control | dose: 200.0 mg/kg/injection, schedule: Q04DX003 (ip), vehicle: gum acacia 96 % of control | dose: 400.0 mg/kg/injection, schedule: Q04DX003 (ip), vehicle: gum acacia 94 % of control

FC(F)(F)c1cccc(NC2=NCCS2)c1
inactive: [1] 91 % of control | [6] 98 % of control | dose: 100.0 mg/kg/injection, schedule: Q04DX002 (ip), vehicle: saline with Tween-80 97 % of control | dose: 200.0 mg/kg/injection, schedule: Q04DX002 (ip), vehicle: saline with Tween-80 115 % of control

Cc1cnc(/C=N/NC(N)=S)cn1
inactive: dose: 100.0 mg/kg/injection, schedule: Q04DX002 (ip), vehicle: saline 99 % of control | dose: 200.0 mg/kg/injection, schedule: Q04DX002 (ip), vehicle: saline 96 % of control | dose: 400.0 mg/kg/injection, schedule: Q04DX002 (ip), vehicle: saline 108 % of control

Cc1c(N)cc([N+](=O)[O-])c(C)c1[N+](=O)[O-]
inactive: dose: 50.0 mg/kg/injection, schedule: Q04DX003 (ip), vehicle: saline with Tween-80 100 % of control | [2] 96 % of control | [3] 100 % of control

CCOC(=O)CNc1ccc(F)cc1Cl
inactive: dose: 100.0 mg/kg/injection, schedule: Q04DX002 (ip), vehicle: Klucel (hydroxypropylcellulose) (HPC) 105 % of control | dose: 200.0 mg/kg/injection, schedule: Q04DX002 (ip), vehicle: Klucel (hydroxypropylcellulose) (HPC) 101 % of control | dose: 400.0 mg/kg/injection, schedule: Q04DX002 (ip), vehicle: Klucel (hydroxypropylcellulose) (HPC) 105 % of control

N=C(N)Sc1cc(O)ccc1O
inactive: dose: 50.0 mg/kg/injection, schedule: Q01DX009 (ip), vehicle: saline 94 % of control | dose: 100.0 mg/kg/injection, schedule: Q01DX009 (ip), vehicle: saline 93 % of control | dose: 100.0 mg/kg/injection, schedule: Q04DX003 (ip), vehicle: alcohol 102 % of control | dose: 200.0 mg/kg/injection, schedule: Q01DX009 (ip), vehicle: saline 96 % of control | dose: 200.0 mg/kg/injection, schedule: Q04DX003 (ip), vehicle: alcohol 104 % of control

CC(=O)CC(=O)NCCN1CCN(C(=O)CC(C)=O)CC1
inactive: dose: 100.0 mg/kg/injection, schedule: Q01DX001 (ip), vehicle: saline 93 % of control | dose: 200.0 mg/kg/injection, schedule: Q01DX001 (ip), vehicle: saline 101 % of control | dose: 400.0 mg/kg/injection, schedule: Q01DX001 (ip), vehicle: saline 98 % of control
